In US12018059B2, “Human amylin analog polypeptides and methods of use” (Intarcia Therapeutics, Inc., priority 2018, dated 2024):
Positions of bridges follow the written chain, without caps; N, C: chain ends. Residues, ends and D or L forms follow the SMILES beside them.

Experiment: Pharmacokinetics, 3-hour intravenous infusion of linear (non-acylated) polypeptides
Design: species or system Sprague-Dawley rats
Settings: rat, in vivo, 0.1 mg/kg; linear polypeptides; 3-hour intravenous infusion, 0.100 mg/kg, male Sprague-Dawley rats; read-out: CL
Procedure: Peptides were dissolved in sterile saline and administered as a 3-hour intravenous infusion to non-fasted male Sprague-Dawley rats (n=3 per group) via femoral vein cannula at a final dose of 0.100 mg/kg. […] Blood samples (approximately 250 μL) were collected for pharmacokinetic analysis via a jugular vein cannula at 0.25, 0.5, 1, 2, 3, 3.17, 3.33, 3.5, 4, 4.5, 5, and 6 hr post-start of infusion (long method) or at 1, 1.5, 2, 2.5, and 3 hr post-start of infusion (steady-state screening method). All samples were collected into microtainer tubes containing K2EDTA as anticoagulant and 25 μL of a protease inhibitor cocktail. Plasma was prepared by centrifugation and stored at −80° C. until analysis. The results of this analysis are shown in Table 9 and few exemplars in FIGS. 3a-3b.
A 60 μL aliquot of each plasma sample was placed into to a 96-well plate. To each well was added 6 μL of 0.5% Tween-20. Plates were then vortexed mixed for 10 minutes at 1200 rpm before 180 μL of 0.1% TFA in 2:1 ethanol:acetonitrile containing an appropriate internal standard was added to each well. Plates were vortex mixed for 5 min at 1300 rpm, and then centrifuged for 10 min at 2844×g. Supernatants (180 μL) were placed into a clean 96-well plate and evaporated under a nitrogen stream at 45° C. Residues were reconstituted in 80 μL of 20% acetonitrile (aq) containing 0.1% formic acid.
A […] aliquot of each plasma sample was diluted with […] of 10 mM ammonium acetate (pH 6.8) containing an appropriate internal standard and loaded onto an Oasis WCX microElution plate (Waters Corporation, Milford, MA) that had been pre-conditioned with […] of methanol and […] of deionized water. Samples were washed with […] of 5% ammonium hydroxide (aq) followed by […] of 20% acetonitrile in water. The analyte was eluted with […] of 5% formic acid in 75:25 acetonitrile:water. The eluent was dried under a nitrogen stream. Residues were reconstituted in 80 μL of 20% acetonitrile (aq) containing 0.1% formic acid.
All calibration standards were prepared in control rat plasma containing K2EDTA and protease inhibitor cocktail.
Samples and standards were analyzed by TurbolonSpray™ UPLC-MS/MS using a system consisting of a CTC HTS PAL auto-injector (Leap, Carrboro, NC), an Agilent Infinity 1290 system with column oven (Palo Alto, CA), a Valco switching valve (Houston, TX), and either an AB Sciex API 5600 TripleTOF™ or Sciex API 4000QTrap mass spectrometer (Framingham, MA). Samples were injected onto a 2.1×50 mm reverse phase C18 analytical column, typically a Waters CORTECS UPLC C18+, 1.6 μm (Waters Corporation, Milford, MA) or similar. […] Initial conditions consisted of 90% A and 10% B. The organic component was increased to 95% B over a period of 3-4 minutes, depending on the peptide. Typical flow rates were 600 μL/min. The column temperature was held constant at 40 or 50° C. Peptides were quantified by monitoring one or more product ions produced from a multiply charged parent ion.
For CC[C@H](C)[C@H](NC(=O)[C@@H]1CCCN1C(=O)CNC(=O)[C@H](Cc1ccccc1)NC(=O)[C@H](CC(N)=O)NC(=O)[C@H](CC(N)=O)NC(=O)[C@H](CO)NC(=O)[C@H](CO)NC(=O)[C@H](CCCCN)NC(=O)[C@H](Cc1c[nH]cn1)NC(=O)[C@H](CC(C)C)NC(=O)[C@H](CCC(=O)O)NC(=O)[C@H](CC(N)=O)NC(=O)[C@H](C)NC(=O)[C@H](CC(C)C)NC(=O)[C@H](CCCNC(=N)N)NC(=O)[C@H](CCC(N)=O)NC(=O)[C@@H](NC(=O)[C@H](C)NC(=O)[C@@H]1CSSC[C@H](NC(=O)[C@@H](N)CO)C(=O)N[C@@H](CC(N)=O)C(=O)N[C@@H]([C@@H](C)O)C(=O)N[C@@H](CO)C(=O)N[C@@H]([C@@H](C)O)C(=O)N1)[C@@H](C)O)C(=O)N[C@@H](CC(C)C)C(=O)N1CCC[C@H]1C(=O)N1CCC[C@H]1C(=O)N[C@H](C(=O)N[C@@H](CCCCN)C(=O)N[C@H](C(=O)NCC(=O)N[C@@H](CO)C(=O)N[C@@H](CC(N)=O)C(=O)N[C@H](C(=O)N[C@@H](Cc1ccc(O)cc1)C(N)=O)[C@@H](C)O)C(C)C)[C@@H](C)O [Compound A17] (H-SCNTSTCATQRLANELHKSSNNFGPILPPTKVGSNTY-NH2; disulfide 2-7), the clearance was 20 mL/min/kg. Compound CC[C@H](C)[C@H](NC(=O)[C@@H]1CCCN1C(=O)CNC(=O)[C@H](Cc1ccccc1)NC(=O)[C@H](CC(N)=O)NC(=O)[C@H](CC(N)=O)NC(=O)[C@H](CO)NC(=O)[C@H](CO)NC(=O)[C@H](Cc1c[nH]cn1)NC(=O)[C@@H](NC(=O)[C@H](CC(C)C)NC(=O)[C@H](CCC(=O)O)NC(=O)[C@H](CC(N)=O)NC(=O)[C@H](C)NC(=O)[C@H](CC(C)C)NC(=O)[C@H](CCCNC(=N)N)NC(=O)[C@H](CO)NC(=O)[C@@H](NC(=O)[C@H](C)NC(=O)[C@@H]1CSSC[C@H](NC(=O)[C@@H](N)CO)C(=O)N[C@@H](CC(N)=O)C(=O)N[C@@H]([C@@H](C)O)C(=O)N[C@@H](CO)C(=O)N[C@@H]([C@@H](C)O)C(=O)N1)[C@@H](C)O)C(C)C)C(=O)N[C@@H](CC(C)C)C(=O)N1CCC[C@H]1C(=O)N1CCC[C@H]1C(=O)N[C@H](C(=O)N[C@@H](CC(N)=O)C(=O)N[C@H](C(=O)NCC(=O)N[C@@H](CO)C(=O)N[C@@H](CC(N)=O)C(=O)N[C@H](C(=O)N[C@@H](Cc1ccc(O)cc1)C(N)=O)[C@@H](C)O)C(C)C)[C@@H](C)O [Compound A32] (H-SCNTSTCATSRLANELVHSSNNFGPILPPTNVGSNTY-NH2; disulfide 2-7) has a clearance of 19.5 mL/min/kg. CC[C@H](C)[C@H](NC(=O)[C@@H]1CCCN1C(=O)CNC(=O)[C@H](Cc1ccccc1)NC(=O)[C@H](CCC(=O)O)NC(=O)[C@H](CC(N)=O)NC(=O)[C@H](CO)NC(=O)[C@H](CO)NC(=O)[C@H](CCCNC(=N)N)NC(=O)[C@H](Cc1c[nH]cn1)NC(=O)[C@H](CC(C)C)NC(=O)[C@H](CCC(=O)O)NC(=O)[C@H](CC(N)=O)NC(=O)[C@H](C)NC(=O)[C@H](CC(C)C)NC(=O)[C@H](CCCNC(=N)N)NC(=O)[C@H](CCC(N)=O)NC(=O)[C@@H](NC(=O)[C@H](C)NC(=O)[C@@H]1CSSC[C@H](NC(=O)[C@@H](N)CO)C(=O)N[C@@H](CC(N)=O)C(=O)N[C@@H]([C@@H](C)O)C(=O)N[C@@H](CO)C(=O)N[C@@H]([C@@H](C)O)C(=O)N1)[C@@H](C)O)C(=O)N[C@@H](CC(C)C)C(=O)N1CCC[C@H]1C(=O)N1CCC[C@H]1C(=O)N[C@H](C(=O)N[C@@H](CC(N)=O)C(=O)N[C@H](C(=O)NCC(=O)N[C@@H](CO)C(=O)N[C@@H](CC(N)=O)C(=O)N[C@H](C(=O)N[C@@H](Cc1ccc(O)cc1)C(N)=O)[C@@H](C)O)C(C)C)[C@@H](C)O [Compound A41] (H-SCNTSTCATQRLANELHRSSNEFGPILPPTNVGSNTY-NH2; disulfide 2-7) gave a clearance of 17.5 mL/min/kg.

Same assay, conditions: rat, in vivo, iv, 0.1 mg/kg
Work on CC[C@H](C)[C@H](NC(=O)[C@@H]1CCCN1C(=O)CNC(=O)[C@H](Cc1ccccc1)NC(=O)[C@H](CC(N)=O)NC(=O)[C@H](CC(N)=O)NC(=O)[C@H](CO)NC(=O)[C@H](CO)NC(=O)[C@H](CCCNC(=N)N)NC(=O)[C@H](Cc1c[nH]cn1)NC(=O)[C@H](CC(C)C)NC(=O)[C@H](CCC(=O)O)NC(=O)[C@H](CC(N)=O)NC(=O)[C@H](CO)NC(=O)[C@H](CC(C)C)NC(=O)[C@H](CCCNC(=N)N)NC(=O)[C@H](CO)NC(=O)[C@@H](NC(=O)[C@H](C)NC(=O)[C@@H]1CSSC[C@H](NC(=O)[C@@H](N)CO)C(=O)N[C@@H](CC(N)=O)C(=O)N[C@@H]([C@@H](C)O)C(=O)N[C@@H](CO)C(=O)N[C@@H]([C@@H](C)O)C(=O)N1)[C@@H](C)O)C(=O)N[C@@H](CC(C)C)C(=O)N1CCC[C@H]1C(=O)N1CCC[C@H]1C(=O)N[C@H](C(=O)N[C@@H](CCCCN)C(=O)N[C@H](C(=O)NCC(=O)N[C@@H](CO)C(=O)N[C@@H](CCC(=O)O)C(=O)N[C@H](C(=O)N[C@@H](Cc1ccc(O)cc1)C(N)=O)[C@@H](C)O)C(C)C)[C@@H](C)O [Compound A33] (H-SCNTSTCATSRLSNELHRSSNNFGPILPPTKVGSETY-NH2; disulfide 2-7) yielded a clearance of 17.7 mL/min/kg. Compound CC[C@H](C)[C@H](NC(=O)[C@@H]1CCCN1C(=O)CNC(=O)[C@H](Cc1ccccc1)NC(=O)[C@H](CC(N)=O)NC(=O)[C@H](CC(N)=O)NC(=O)[C@H](CO)NC(=O)[C@H](CO)NC(=O)[C@H](CCCNC(=N)N)NC(=O)[C@H](Cc1c[nH]cn1)NC(=O)[C@H](CC(C)C)NC(=O)[C@H](CCC(=O)O)NC(=O)[C@H](CC(N)=O)NC(=O)[C@H](CO)NC(=O)[C@H](CC(C)C)NC(=O)[C@H](CCCNC(=N)N)NC(=O)[C@H](CCC(N)=O)NC(=O)[C@@H](NC(=O)[C@H](C)NC(=O)[C@@H]1CSSC[C@H](NC(=O)[C@@H](N)CO)C(=O)N[C@@H](CC(N)=O)C(=O)N[C@@H]([C@@H](C)O)C(=O)N[C@@H](CO)C(=O)N[C@@H]([C@@H](C)O)C(=O)N1)[C@@H](C)O)C(=O)N[C@@H](CC(C)C)C(=O)N1CCC[C@H]1C(=O)N1CCC[C@H]1C(=O)N[C@H](C(=O)N[C@@H](CCCCN)C(=O)N[C@H](C(=O)NCC(=O)N[C@@H](CO)C(=O)N[C@@H](CCC(=O)O)C(=O)N[C@H](C(=O)N[C@@H](Cc1ccc(O)cc1)C(N)=O)[C@@H](C)O)C(C)C)[C@@H](C)O [Compound A34] (H-SCNTSTCATQRLSNELHRSSNNFGPILPPTKVGSETY-NH2; disulfide 2-7) has a clearance of 15.5 mL/min/kg. Work on CC[C@H](C)[C@H](NC(=O)[C@@H]1CCCN1C(=O)CNC(=O)[C@H](Cc1ccccc1)NC(=O)[C@H](CCC(=O)O)NC(=O)[C@H](CC(N)=O)NC(=O)[C@H](CO)NC(=O)[C@H](CO)NC(=O)[C@H](CCCCN)NC(=O)[C@@H](NC(=O)[C@H](CC(C)C)NC(=O)[C@H](Cc1ccccc1)NC(=O)[C@H](CC(N)=O)NC(=O)[C@H](C)NC(=O)[C@H](CC(C)C)NC(=O)[C@H](CCCNC(=N)N)NC(=O)[C@H](CCC(N)=O)NC(=O)[C@@H](NC(=O)[C@H](C)NC(=O)[C@@H]1CSSC[C@H](NC(=O)[C@@H](N)CO)C(=O)N[C@@H](CC(N)=O)C(=O)N[C@@H]([C@@H](C)O)C(=O)N[C@@H](CO)C(=O)N[C@@H]([C@@H](C)O)C(=O)N1)[C@@H](C)O)C(C)C)C(=O)N[C@@H](CC(C)C)C(=O)N1CCC[C@H]1C(=O)N1CCC[C@H]1C(=O)N[C@H](C(=O)N[C@@H](CCCCN)C(=O)N[C@H](C(=O)NCC(=O)N[C@@H](CO)C(=O)N[C@@H](CCC(=O)O)C(=O)N[C@H](C(=O)N[C@@H](Cc1ccc(O)cc1)C(N)=O)[C@@H](C)O)C(C)C)[C@@H](C)O [Compound A43] (H-SCNTSTCATQRLANFLVKSSNEFGPILPPTKVGSETY-NH2; disulfide 2-7) yielded a clearance of 23.2 mL/min/kg.
